Data published in US5241059A, “Cyclodextrin derivatives” (Toppan Printing Co., Ltd., priority 1990, dated 1993).
Where two headings read alike, the source gives them in different places.

What was measured:
[1] = cited from earlier work

| Molecule | Water Solubility (water) | other results |
| --- | --- | --- |
| O=C(O)COCC1OC2OC3C(COCC(=O)O)OC(OC4C(COCC(=O)O)OC(OC5C(COCC(=O)O)OC(OC6C(COCC(=O)O)OC(OC7C(COCC(=O)O)OC(OC8C(COCC(=O)O)OC(OC1C(O)C2O)C(O)C8O)C(O)C7O)C(O)C6O)C(O)C5O)C(O)C4O)C(O)C3O (stereo not drawn) [Heptacarboxylic acid β-CD] | > 300 g/100 ml H2 O | – |
| C[N+](C)(C)CC1OC2OC3C(CO)OC(OC4C(CO)OC(OC5C(CO)OC(OC6C(CO)OC(OC7C(CO)OC(OC8C(CO)OC(OC1C(O)C2O)C(O)C8O)C(O)C7O)C(O)C6O)C(O)C5O)C(O)C4O)C(O)C3O.[Cl-] (stereo not drawn) [Monotrimethylammonium (chloride) β-CD] | – | Water Solubility (25° C.): > 200 g/100 ml H2 O |
| Hydroxypropyl β-CD | – | Water Solubility [1]: 115 g/100 ml H2 O |
| mono-6-dihydroxyphosphonyl-6-deoxy β-CD [Monophosphoric acid β-CD] | > 250 g/100 ml H2 O | – |
